We go through 21 compounds from US5218000A, “Therapeutic polyamine-amides” (priority 1988, dated 1993).

Read-outs that look alike come from different tables or passages of the source.

In assay [1] the test system is invertebrate L-quisqualate sub-type L-glutamate receptor and its ion channel. Nature of the assay: locust isolated retractor unguis nerve-muscle preparation, twitch amplitude on electrical stimulation. In kind it is cell-based, Schistocerca gregaria. To be noted: for IC50: locust retractor unguis muscle, electrically stimulated. The procedure:
The compounds were assayed for biological activity on the isolated, retractor unguis nerve-muscle preparation of the locust Schistocerca gregaria (Usherwood, P.N.R and Machili, P. (1968) J. Exp. Biol., 49: 341.). Isolated muscle preparations were bathed continuously in standard locust saline in a bath of volume 250 μl. Twitch tension recordings of the muscle were made to electrical stimulation of its motor innervation supramaximal voltage, frequency 0.1 Hz).
The locust isolated retractor unguis nerve-muscle is a preparation with well characterised muscle receptors belonging to the quisqualate-sensitiveclass (Boden, P. et al., (1986) Brain Res., 385: 205.). This preparation has previously been employed to identify antogonists of excitatory amino acid receptors, (e.g. Bateman, A. et al., (1985) Brain Res., 339: 237 and Budd, T. et al., (1988) Brain Res., 448: 30.). Excitatory amino acid receptors are also believed to be of considerable importance in the mammal and for therapeutic applications.
The potency of this monoacylated spermine as an antagonist of the complex formed by the invertebrate L-quisqualate sub-type L-glutamate receptor and its ion channel was assayed using the electrically stimulated retractor unguis muscle of the locust (Schistocerca gregaria). Twitch amplitude was reduced ([…]) from control (100%) levels at the following concentrations: […]

The subject of a further assay is quizqualate receptor. Put plainly: rat cerebral cortex slice (wedge, grease-gap), AMPA-induced depolarisation response. In kind it is cell-based, Wistar rats. To be noted: rat brain slice. The source says:
(§1) Coronal slices of cerebral cortex were cut with a Vibratome from the brains of freshly killed Wistar rats. Wedges of tissue were cut from either side of the mid-line to include the cortex and corpus callosum. The wedges were mounted in a grease-gap apparatus such that the cortex protruded into one compartment and the corpus callosum into the other compartment of a two-compartment bath, (Harrison N. L. & Simmonds M. A. (1985). Br. J. Pharmacol 84: 381-391.). Each compartment could be separately perfused with Krebs bicarbonate medium pre-gassed with 95% 02 /5% CO2 at room temperature. The volume of each compartment was 1.8 ml and the perfusion rate was 2 ml/min. The compartment containing the cortical part of the wedge was also gassed directly so that drugs could be injected into the bath with the perfusion pump stopped. This variant on the published method was adopted to minimise the amount of drug required. The potential difference between the two compartments was recorded continously via Ag/AgCl electrodes. […]
(§2) The potency of this monoacylated spermine was tested as an antagonist of NMDA- and AMPA- induced response in a rat brain slice model. Electrophysiologically recorded depolarisation responses were reduced from control levels (% inhibition) at the following concentrations: […]

For another assay, the system named is NMDA receptor. Nature of the assay: rat cerebral cortex slice (wedge, grease-gap), NMDA-induced depolarisation response. Type of assay: cell-based, Wistar rats. To be noted: rat brain slice, Mg2+ omitted.
From the text: as §1, §2

Setting [2] is: approximate, read-out: concentration at which an approximately 50% reduction of twitch amplitude was obtained.
[3] abbreviates: read-out: IC50 (reduction of twitch amplitude).

With `NCCCNCCCNCCCNC(=O)Cc1cccc(O)c1` [Example 20, N-(3-Hydroxyphenylacetyl)-N',N"-bis(3-aminopropyl)-1,3-propanediamine], the “reduction of twitch amplitude from control levels” value (from here on “reduction … from control levels”) in assay [1] (1.04×10^-4 M, 104 µM) was “approximately 60%”.

For `NCCCNCCCCNCCCNC(=O)c1ccc(O)cc1` [Example 12, N-(4-Hydroxybenzoyl)-spermine], the IC50 in assay [1] (setting [2]) is roughly 50 µM.

Regarding `COc1ccccc1CC(=O)NCCCNCCCNCCCN` [Example 17, N-(2-Methoxyphenylacetyl)-N',N"-bis(3-aminopropyl)-1,3-propanediamine], in assay [1] (setting [2]), the IC50 was roughly 900 µM.

As to `NCCCNCCCCNCCCNC(=O)C=Cc1cccc(O)c1` [Example 13, N-(3-Hydroxycinnamoyl)-spermine], in assay [1] (9.2×10^-7 M, 0.92 µM), the “reduction … from control levels” value is on record as “approximately 25%”.

Regarding `NCCCNCCCCNCCCNC(=O)Cc1ccc(O)c(O)c1` [Example 8, N-(3,4-Dihydroxyphenylacetyl)-spermine], in assay [1] (setting [2]), the IC50 was roughly 500 µM.

For `COc1ccccc1CC(=O)NCCCNCCCCNCCCN` [Example 15, N-(2-Methoxyphenylacetyl)-spermine], in assay [1] (setting [2]), the IC50 was roughly 500 µM.

`NCCCNCCCCNCCCNC(=O)Cc1ccc(O)cc1` [Example 3, N-(4-Hydroxyphenylacetyl)-spermine]: the inhibition of twitch in assay [1] (2.95 × 10^-5 M) turned out to be 74%; in assay [1] (4.43 × 10^-5 M) it was 91%; in assay [1] (5.9 × 10^-5 M), 96%; in assay [1] (5.9 × 10^-6 M) it was 25%; in assay [1] (5.9 × 10^-7 M), 9%. In addition, the IC50 in assay [1] (setting [3]) was determined as 8.7 µM. Moreover, the “% inhibition of AMPA-induced depolarisation response” value turned out to be 22% in the assay with quizqualate receptor (10^-5 M) and 0% with quizqualate receptor (10^-6 M). For the same compound, the “% inhibition of NMDA-induced depolarisation response” value with NMDA receptor (10^-5 M) worked out at 35%; in the assay on NMDA receptor (10^-6 M) it was 29%.

For the compound `COc1ccc(CC(=O)NCCCNCCCNCCCN)cc1` [Example 18, N-(4-Methoxyphenylacetyl)-N',N"-bis(3-aminopropyl)-1,3-propanediamine], in assay [1] (setting [2]), the IC50 is roughly 900 µM.

Take `NCCCNCCCCNCCCNC(=O)Cc1cc(O)cc(O)c1` [Example 9, N-(3,5-Dihydroxyphenylacetyl)-spermine]: the inhibition of twitch is reported as 25% in assay [1] (1 07 × 10^-6 M) and 45% in assay [1] (1.07 × 10^-5 M).

In the case of `NCCCNCCCCNCCCNC(=O)Cc1ccc(O)cc1O` [Example 7, N-(2,4-Dihydroxyphenylacetyl)-spermine], the IC50 in assay [1] (setting [2]) was roughly 50 µM.

Consider `NCCCNCCCNCCCNC(=O)Cc1ccccc1O` [Example 19, N-(2-Hydroxyphenylacetyl)-N',N"-bis(3-aminopropyl)-1,3-propanediamine], for which the IC50 in assay [1] (setting [2]) was roughly 900 µM.

For `NCCCNCCCCNCCCNC(=O)CCc1ccccc1O` [Example 4, N-(2-Hydroxyphenylpropanoyl)-spermine], the IC50 in assay [1] (setting [2]) was roughly 50 µM.

For `NCCCNCCCCNCCCNC(=O)Cc1ccccc1O` [Example 1, N-(2-Hydroxyphenylacetyl)-spermine], the inhibition of twitch stood at 85% in assay [1] (1.5 × 10^-4 M); 30% in assay [1] (1.5 × 10^-5 M); 90% in assay [1] (3 × 10^-4 M); 30% in assay [1] (3 × 10^-5 M); 20% in assay [1] (3 × 10^-6 M); 15% in assay [1] (3 × 10^-7 M). Besides, the inhibition of twitch in assay [1] (3 × 10^-8 M) is given as 10%. For the same compound, the IC50 in assay [1] (setting [3]) turned out to be 62 µM.

On to `NCCCNCCCNCCCNC(=O)Cc1ccc(O)cc1` [Example 21, N-(4-Hydroxyphenylacetyl)-N',N"-bis(3-aminopropyl)-1,3-propanediamine], for which the “reduction … from control levels” value in assay [1] (1×10^-4 M, 100 µM) is recorded as “approximately 30%”. Further, the IC50 in assay [1] (setting [2]) was roughly 900 µM.

Consider `NCCCNCCCCNCCCNC(=O)C=Cc1ccc(O)cc1` [Example 6, N-(4-Hydroxycinnamoyl)-spermine], for which the inhibition of twitch in assay [1] (10^-5 M) came to 70%; in assay [1] (10^-6 M) it was 56%; in assay [1] (10^-7 M), 33%; in assay [1] (10^-8 M), 24%; in assay [1] (10^-9 M) it was 18%; in assay [1] (10^-10 M), 4%. In assay [1] (setting [3]), the IC50 is 60 µM.

For the compound `COc1ccc(CC(=O)NCCCNCCCCNCCCN)cc1` [Example 16, N-(4-Methoxyphenylacetyl)-spermine], the IC50 in assay [1] (setting [2]) was roughly 500 µM.

For `NCCCNCCCCNCCCNC(=O)c1ccccc1O` [Example 10], the “reduction of twitch amplitude from control level” value in assay [1] (1.09×10^-5 M, 10.9 µM) is given as “approximately 25%”.

As to `NCCCNCCCCNCCCNC(=O)Cc1ccc(O)c(F)c1` [Example 14, N-(3-Fluoro-4-hydroxyphenylacetyl)-spermine], the IC50 in assay [1] (setting [2]) is roughly 500 µM.

With `NCCCNCCCCNCCCNC(=O)c1cccc(O)c1` [Example 11, N-(3-Hydroxybenzoyl)-spermine], the “reduction … from control levels” value in assay [1] (1.02×10^-5 M, 10.2 µM) is given as “approximately 40%”.

Consider `NCCCNCCCCNCCCNC(=O)CCc1cccc(O)c1` [Example 5, N-(3-Hydroxyphenylpropanoyl)-spermine], for which the inhibition of twitch came to 15% in assay [1] (1.08 × 10^-6 M) and 10% in assay [1] (1.08 × 10^-7 M).

For the compound `NCCCNCCCCNCCCNC(=O)Cc1cccc(O)c1` [Example 2, N-(3-Hydroxyphenylacetyl)-spermine], the inhibition of twitch in assay [1] (3 × 10^-7 M) came to 35%; in assay [1] (3 × 10^-8 M) it was 30%.
